Measured values published in the CheMixHub viscosity set.
“And” between values parts separate entries of the source, which are not always exact repeats. Equal entries are not always repeated. ± gives the uncertainty stated by the source.

Assay: xn = mol fraction of the nth substance listed

COCCO + CC(=O)N(C)C
viscosity [mPa·s], 101 kPa
Conditions | 298.15 K | 308.15 K | 318.15 K
x2 = 0.0301 | 1.535 ± 0.02 | 1.254 ± 0.016 | 1.048 ± 0.014
x2 = 0.06 | 1.528 ± 0.02 | 1.25 ± 0.016 | 1.046 ± 0.014
x2 = 0.0871 | 1.52 ± 0.019 | 1.247 ± 0.016 | 1.045 ± 0.014
x2 = 0.125 | 1.507 ± 0.019 | 1.239 ± 0.016 | 1.041 ± 0.014
x2 = 0.1767 | 1.488 ± 0.019 | 1.228 ± 0.016 | 1.034 ± 0.014
x2 = 0.225 | 1.466 ± 0.019 | 1.214 ± 0.016 | 1.026 ± 0.014
x2 = 0.2902 | 1.432 ± 0.018 | 1.192 ± 0.016 | 1.011 ± 0.013
x2 = 0.364 | 1.39 ± 0.018 | 1.164 ± 0.015 | 0.991 ± 0.013
x2 = 0.4602 | 1.329 ± 0.017 | 1.122 ± 0.015 | 0.96 ± 0.013
x2 = 0.52 | 1.289 ± 0.017 | 1.092 ± 0.014 | 0.938 ± 0.013
x2 = 0.5611 | 1.26 ± 0.016 | 1.07 ± 0.014 | 0.921 ± 0.012
x2 = 0.62 | 1.216 ± 0.016 | 1.038 ± 0.014 | 0.897 ± 0.012
x2 = 0.6654 | 1.181 ± 0.015 | 1.011 ± 0.013 | 0.876 ± 0.012
x2 = 0.725 | 1.135 ± 0.015 | 0.977 ± 0.013 | 0.849 ± 0.012
x2 = 0.7732 | 1.099 ± 0.014 | 0.949 ± 0.013 | 0.827 ± 0.011
x2 = 0.825 | 1.059 ± 0.014 | 0.919 ± 0.012 | 0.803 ± 0.011
x2 = 0.8847 | 1.014 ± 0.013 | 0.885 ± 0.012 | 0.775 ± 0.011
x2 = 0.9501 | 0.965 ± 0.013 | 0.847 ± 0.012 | 0.746 ± 0.01

CC(O)=S + c1ccccc1
298.1 K, 101 kPa
Conditions | viscosity [mPa·s]
x1 = 0.2 | 0.584 ± 0.046
x1 = 0.4 | 0.584 ± 0.046
x1 = 0.5 | 0.589 ± 0.046
x1 = 0.6 | 0.599 ± 0.047
x1 = 0.8 | 0.631 ± 0.049

C[N+](C)(C)C[C@H](O)CC(=O)[O-] + O=C1O[C@H]([C@@H](O)CO)C(O)=C1O
Conditions | viscosity [mPa·s]
298.15 K, 101.33 kPa, x2 = 0.7 | 423.5

CCCC(C)O (stereo not drawn) + O
298.15 K, 101 kPa
Conditions | viscosity [mPa·s]
x2 = 0.008 | 3.443 ± 0.032
x2 = 0.0721 | 3.234 ± 0.032
x2 = 0.0934 | 3.182 ± 0.033
x2 = 0.1359 | 3.129 ± 0.034
x2 = 0.1655 | 3.111 ± 0.035
x2 = 0.1981 | 3.104 ± 0.037
x2 = 0.2187 | 3.114 ± 0.038
x2 = 0.2403 | 3.119 ± 0.039
x2 = 0.255 | 3.125 ± 0.04
x2 = 0.2971 | 3.163 ± 0.042

CCOC(=O)C(=O)OCC + c1ccccc1
303.15 K, 101 kPa
Conditions | viscosity [mPa·s]
x1 = 0.0682 | 0.5918 ± 0.0061
x1 = 0.1415 | 0.6316 ± 0.0064
x1 = 0.2203 | 0.6727 ± 0.0068
x1 = 0.3054 | 0.7255 ± 0.0073
x1 = 0.3972 | 0.7942 ± 0.0079
x1 = 0.4972 | 0.8854 ± 0.0088
x1 = 0.6066 | 1.009 ± 0.0099
x1 = 0.7258 | 1.164 ± 0.011
x1 = 0.8557 | 1.374 ± 0.013

C1CNCCN1 + O
Conditions | viscosity
293.15 K, 100 kPa, x1 = 0.02273 | 1.608 ± 0.053 mPa·s
298.15 K, 101 kPa, x1 = 0.0292 | 1.877 ± 0.044 mPa·s
303.15 K, 101 kPa, x1 = 0.00369 | 0.86 ± 0.04 mPa·s
303.15 K, 101 kPa, x1 = 0.005 | 0.84 ± 0.04 mPa·s
303.15 K, 101 kPa, x1 = 0.01 | 0.93 ± 0.04 mPa·s
303.15 K, 101 kPa, x1 = 0.0113 | 0.97 ± 0.05 mPa·s
303.15 K, 101 kPa, x1 = 0.02 | 1.13 ± 0.05 mPa·s
303.15 K, 101 kPa, x1 = 0.02358 | 1.28 ± 0.06 mPa·s
303.15 K, 101 kPa, x1 = 0.025 | 1.28 ± 0.05 mPa·s
303.15 K, 101 kPa, x1 = 0.03 | 1.41 ± 0.06 mPa·s
303.15 K, 101 kPa, x1 = 0.035 | 1.57 ± 0.07 mPa·s
303.15 K, 101 kPa, x1 = 0.04 | 1.76 ± 0.07 mPa·s
303.15 K, 101 kPa, x1 = 0.045 | 1.91 ± 0.08 mPa·s
313.15 K, 100 kPa, x1 = 0.02273 | 0.9677 ± 0.032 mPa·s and 0.988 ± 0.021 mPa·s
313.15 K, 101 kPa, x1 = 0.005 | 0.67 ± 0.03 mPa·s
313.15 K, 101 kPa, x1 = 0.01 | 0.74 ± 0.03 mPa·s
313.15 K, 101 kPa, x1 = 0.0113 | 0.76 ± 0.04 mPa·s
313.15 K, 101 kPa, x1 = 0.015 | 0.81 ± 0.03 mPa·s
313.15 K, 101 kPa, x1 = 0.02 | 0.89 ± 0.04 mPa·s
313.15 K, 101 kPa, x1 = 0.02358 | 1.02 ± 0.05 mPa·s
313.15 K, 101 kPa, x1 = 0.025 | 0.99 ± 0.04 mPa·s
313.15 K, 101 kPa, x1 = 0.0292 | 1.307 ± 0.032 mPa·s
313.15 K, 101 kPa, x1 = 0.03 | 1.08 ± 0.04 mPa·s
313.15 K, 101 kPa, x1 = 0.04 | 1.33 ± 0.05 mPa·s
313.15 K, 101 kPa, x1 = 0.045 | 1.43 ± 0.06 mPa·s
318.15 K, 101 kPa, x1 = 0.00369 | 0.61 ± 0.03 mPa·s
318.15 K, 101 kPa, x1 = 0.0113 | 0.69 ± 0.04 mPa·s
318.15 K, 101 kPa, x1 = 0.02358 | 0.92 ± 0.05 mPa·s
323.15 K, 101 kPa, x1 = 0.005 | 0.51 ± 0.02 mPa·s
323.15 K, 101 kPa, x1 = 0.01 | 0.59 ± 0.03 mPa·s
323.15 K, 101 kPa, x1 = 0.0113 | 0.62 ± 0.03 mPa·s
323.15 K, 101 kPa, x1 = 0.02 | 0.71 ± 0.03 mPa·s
323.15 K, 101 kPa, x1 = 0.02358 | 0.81 ± 0.04 mPa·s
323.15 K, 101 kPa, x1 = 0.025 | 0.8 ± 0.03 mPa·s
323.15 K, 101 kPa, x1 = 0.03 | 0.86 ± 0.04 mPa·s
323.15 K, 101 kPa, x1 = 0.035 | 0.95 ± 0.04 mPa·s
323.15 K, 101 kPa, x1 = 0.04 | 1.04 ± 0.04 mPa·s
323.15 K, 101 kPa, x1 = 0.045 | 1.11 ± 0.05 mPa·s

COCCO + CC(C)(C)O
Conditions | viscosity [mPa·s]
303.15 K, 101.3 kPa, x1 = 0.1011 | 2.892 ± 0.033
303.15 K, 101.3 kPa, x1 = 0.1977 | 2.538 ± 0.029
303.15 K, 101.3 kPa, x1 = 0.2694 | 2.324 ± 0.027
303.15 K, 101.3 kPa, x1 = 0.3774 | 2.043 ± 0.024
303.15 K, 101.3 kPa, x1 = 0.4851 | 1.831 ± 0.021
303.15 K, 101.3 kPa, x1 = 0.6774 | 1.579 ± 0.018
303.15 K, 101.3 kPa, x1 = 0.745 | 1.523 ± 0.018
303.15 K, 101.3 kPa, x1 = 0.849 | 1.456 ± 0.017
303.15 K, 101.3 kPa, x1 = 0.9028 | 1.427 ± 0.017
308.15 K, 101.33 kPa, x1 = 0.119 | 2.241 ± 0.019
308.15 K, 101.33 kPa, x1 = 0.2504 | 1.929 ± 0.016
308.15 K, 101.33 kPa, x1 = 0.3687 | 1.713 ± 0.014
308.15 K, 101.33 kPa, x1 = 0.5096 | 1.527 ± 0.013
308.15 K, 101.33 kPa, x1 = 0.6441 | 1.402 ± 0.012
308.15 K, 101.33 kPa, x1 = 0.7218 | 1.35 ± 0.011
308.15 K, 101.33 kPa, x1 = 0.8035 | 1.298 ± 0.011
308.15 K, 101.33 kPa, x1 = 0.9026 | 1.242 ± 0.01

COCCO + CC(C)O
303.15 K, 101.3 kPa
Conditions | viscosity [mPa·s]
x1 = 0.0989 | 1.54 ± 0.018
x1 = 0.1681 | 1.426 ± 0.017
x1 = 0.3537 | 1.24 ± 0.014
x1 = 0.388 | 1.222 ± 0.014
x1 = 0.5422 | 1.196 ± 0.014
x1 = 0.5877 | 1.202 ± 0.014
x1 = 0.7821 | 1.268 ± 0.015
x1 = 0.8235 | 1.288 ± 0.015
x1 = 0.8851 | 1.324 ± 0.015

CCCCNCCCC + ClCCl
298.15 K, 101.3 kPa
Conditions | viscosity [mPa·s]
x1 = 0.0995 | 0.494 ± 0.007
x1 = 0.2125 | 0.55 ± 0.007
x1 = 0.299 | 0.59 ± 0.007
x1 = 0.3913 | 0.633 ± 0.007
x1 = 0.4338 | 0.655 ± 0.007
x1 = 0.6097 | 0.719 ± 0.008
x1 = 0.6782 | 0.74 ± 0.008
x1 = 0.807 | 0.768 ± 0.008
x1 = 0.8865 | 0.787 ± 0.008

C[N+](C)(C)C[C@H](O)CC(=O)[O-] + O=C(O)CC(O)(CC(=O)O)C(=O)O
Conditions | viscosity [mPa·s]
298.15 K, 101.33 kPa, x2 = 0.4 | 896.5

CCCC(=O)O + CCC(C)=O
viscosity [mPa·s], 101 kPa
Conditions | x2 = 0.1024 | x2 = 0.2043 | x2 = 0.3057 | x2 = 0.4065 | x2 = 0.5067 | x2 = 0.6064 | x2 = 0.7056 | x2 = 0.8043 | x2 = 0.9024
293.15 K | 1.383 ± 0.036 | 1.236 ± 0.032 | 1.1 ± 0.028 | 0.9737 ± 0.025 | 0.8582 ± 0.022 | 0.7526 ± 0.019 | 0.6569 ± 0.017 | 0.571 ± 0.015 | 0.4948 ± 0.013
303.15 K | 1.2 ± 0.031 | 1.078 ± 0.028 | 0.9646 ± 0.025 | 0.8589 ± 0.022 | 0.761 ± 0.02 | 0.6716 ± 0.017 | 0.5897 ± 0.015 | 0.515 ± 0.013 | 0.4485 ± 0.012
313.15 K | 1.021 ± 0.026 | 0.9263 ± 0.024 | 0.8368 ± 0.022 | 0.7525 ± 0.019 | 0.6733 ± 0.017 | 0.5989 ± 0.015 | 0.5293 ± 0.014 | 0.4645 ± 0.012 | 0.4044 ± 0.01

CCCC(=O)O + C1COCO1
298.15 K, 101 kPa
Conditions | viscosity [mPa·s]
x2 = 0.2292 | 1.358 ± 0.011
x2 = 0.3376 | 1.288 ± 0.011
x2 = 0.5433 | 1.098 ± 0.0093
x2 = 0.6408 | 0.9928 ± 0.0084
x2 = 0.7351 | 0.8845 ± 0.0075
x2 = 0.8263 | 0.7758 ± 0.0066
x2 = 0.9146 | 0.6775 ± 0.0058

CCCC(=O)O + NC=O
viscosity [mPa·s], 101 kPa
Conditions | x1 = 0.1043 | x1 = 0.2044 | x1 = 0.3013 | x1 = 0.4031 | x1 = 0.5027 | x1 = 0.5996 | x1 = 0.7011 | x1 = 0.799 | x1 = 0.857 | x1 = 0.951
298.15 K | 2.333 ± 0.08 | 3.534 ± 0.15 | 5.24 ± 0.27 | 7.11 ± 0.41 | 8.41 ± 0.52 | 9.33 ± 0.6 | 9.17 ± 0.58 | 8.51 ± 0.53 | 7.33 ± 0.43 | 4.986 ± 0.25
313.15 K | 1.734 ± 0.049 | 2.563 ± 0.093 | 3.461 ± 0.15 | 4.456 ± 0.22 | 5.37 ± 0.28 | 5.8 ± 0.32 | 5.8 ± 0.32 | 5.54 ± 0.3 | 4.779 ± 0.24 | 3.252 ± 0.14

C[N+](C)(C)C[C@H](O)CC(=O)[O-] + NC(N)=O
Conditions | viscosity [mPa·s]
298.15 K, 101.33 kPa, x2 = 0.7 | 553
